# Source: paper PMC8620390, “New Multi-Targeted Antiproliferative Agents: Design and Synthesis of IC261-Based Oxindoles as Potential Tubulin, CK1 and EGFR Inhibitors” (Pharmaceuticals, 2021)
# Assays:
# MCF-7 = assay: Two-dose antiproliferative screening, SRB assay, MCF-7; assay type: cell-based; details: Homo sapiens, MCF7, 72 h, triplicates; for inhibition at 1 µM: read-out: Growth Inhibition (%) MCF-7 1 μM Average; for inhibition at 10 µM: read-out: Growth Inhibition (%) MCF-7 10 μM Average
# Experimental: (§1) MCF-7(breast adenocarcinoma), PC-3 (prostate cancer) and COLO-205 (colorectal cancer) were obtained from Nawah Scientific inc., (Mokatam, Cairo, Egypt). Cells were maintained in Dulbecco’s Modified Eagle’s media (DMEM media) supplemented with […] of streptomycin, 100 units/mL of penicillin and 10% of heat-inactivated fetal bovine serum in humidified, 5% (v/v) CO2 atmosphere at 37 °C.
# (§2) Cell viability was assessed by the sulforhodamine B (SRB) assay. Aliquots of cell suspension (5 × 10^3 cells, 100 μL) were transferred into 96 well plates and incubated in complete media for 24 h. Cells were treated with another aliquot media (100 μL) containing compounds 3a–f, 4a–f, 6a–f, 7a–f, 9a–b at concentrations of 1 and 10 μM). After 72 h of drug exposure, cells were fixed by replacing media with trichloroacetic acid (TCA, 10%, 150 μL) and incubated at 4 °C for 1 h. The TCA solution was removed, and the cells were washed five times with distilled water. Aliquots of SRB solution (0.4%w/v, 70 μL) were added and incubated in a dark place at room temperature for 10 min. Plates were washed three times with 1% acetic acid and allowed to air dry overnight. Then, a solution of TRIS base and TRIS HCl (TRIS buffer, 10 mM, 150 μL) was added to dissolve protein bound SRB stain. The absorbance was measured at 540 nm using BMGLABTECH®–FLUOstar omega micro-plate reader (Ortenberg, Germany).
# PC-3 = assay: Two-dose antiproliferative screening, SRB assay, PC-3; assay type: cell-based; details: triplicates; for inhibition at 1 µM / inhibition at 10 µM: Homo sapiens, PC-3, 72 h; for inhibition at 1 µM: read-out: Growth Inhibition (%) PC-3 1 μM Average; for inhibition at 10 µM: read-out: Growth Inhibition (%) PC-3 10 μM Average
# Experimental: as §1, §2
# COLO-205 [1] = assay: Two-dose antiproliferative screening, SRB assay, COLO-205; assay type: cell-based, human; details: triplicates; for Growth Inhibition (%) COLO-205 10 μM Average: 72 h; for inhibition at 1 µM / inhibition at 10 µM: Homo sapiens, COLO 205, 72 h; for inhibition at 1 µM: read-out: Growth Inhibition (%) COLO-205 1 μM Average; for inhibition at 10 µM: read-out: Growth Inhibition (%) COLO-205 10 μM Average
# Experimental: as §1, §2
# COLO-205 [2] = assay: IC50 against COLO-205, SRB assay; assay type: cell-based; details: Homo sapiens, 0.001–100 μM
# Experimental: as §2
# The same procedures used to screen two-dose anticancer activities were applied in determining IC50 values against COLO-205 using SRB assay. Cells were maintained at Roswell Park Memorial Institute media (RPMI media). The test was performed using 0.001–100 μM of compounds 4a (IC261), 4b, 4d, 4e, 6e and 6f. IC50 values were calculated using the equation for Boltzman sigmoidal concentration–response curve using the nonlinear regression fitting models by GraphPad, Prism version 5 (GraphPad Software Inc., La Jolla, CA, USA).
# EGFR = biological target: T1, EGFR (Homo sapiens, UniProt P00533); assay: EGFR kinase assay kit (Kinase-Glo MAX); assay type: biochemical; details: EGFR-TK kinase kit; read-out: EGFR Inhibition IC50 (converted)
# T1 construct: enough purified recombinant EGFR enzyme, EGFR substrate, ATP, and kinase assay buffer; purchased Sigma Aldrich
# T1 sequence (P00533 25-1210): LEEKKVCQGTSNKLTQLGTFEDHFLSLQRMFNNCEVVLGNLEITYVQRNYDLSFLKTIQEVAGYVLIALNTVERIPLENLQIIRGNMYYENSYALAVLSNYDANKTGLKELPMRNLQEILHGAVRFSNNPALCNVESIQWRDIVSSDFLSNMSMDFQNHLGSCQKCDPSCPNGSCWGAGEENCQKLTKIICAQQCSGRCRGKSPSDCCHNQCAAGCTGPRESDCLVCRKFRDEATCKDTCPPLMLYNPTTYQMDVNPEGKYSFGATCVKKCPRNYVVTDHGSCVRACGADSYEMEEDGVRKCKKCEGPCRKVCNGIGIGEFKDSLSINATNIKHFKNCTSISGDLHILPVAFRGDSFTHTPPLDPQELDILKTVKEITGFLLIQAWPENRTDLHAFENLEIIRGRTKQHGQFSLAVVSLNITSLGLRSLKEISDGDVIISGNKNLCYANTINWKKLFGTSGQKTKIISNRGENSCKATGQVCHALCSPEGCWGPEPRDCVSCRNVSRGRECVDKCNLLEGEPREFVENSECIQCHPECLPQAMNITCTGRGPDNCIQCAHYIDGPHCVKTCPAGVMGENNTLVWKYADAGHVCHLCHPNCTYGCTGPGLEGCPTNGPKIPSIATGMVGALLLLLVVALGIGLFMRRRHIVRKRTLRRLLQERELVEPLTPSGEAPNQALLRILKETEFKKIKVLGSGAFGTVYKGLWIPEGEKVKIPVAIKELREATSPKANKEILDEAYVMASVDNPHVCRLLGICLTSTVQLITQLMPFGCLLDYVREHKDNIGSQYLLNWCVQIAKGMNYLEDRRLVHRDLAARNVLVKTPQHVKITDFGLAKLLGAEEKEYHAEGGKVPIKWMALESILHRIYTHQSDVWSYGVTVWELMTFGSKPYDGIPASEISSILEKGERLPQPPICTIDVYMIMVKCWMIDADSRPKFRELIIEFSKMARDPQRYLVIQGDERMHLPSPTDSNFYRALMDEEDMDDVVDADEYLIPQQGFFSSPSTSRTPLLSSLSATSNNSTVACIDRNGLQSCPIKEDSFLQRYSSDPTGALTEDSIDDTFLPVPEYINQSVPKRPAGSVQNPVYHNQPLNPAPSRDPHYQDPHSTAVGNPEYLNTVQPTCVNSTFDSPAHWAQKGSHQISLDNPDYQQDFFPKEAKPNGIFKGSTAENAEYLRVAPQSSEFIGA
# Experimental: The EGFR Kinase Assay Kit (Sigma Aldrich, St. Louis, […], USA) is designed to measure EGFR Kinase activity for screening and profiling applications using Kinase-Glo® MAX as a detection reagent. The EGFR Kinase Assay Kit (Sigma Aldrich, St. Louis, […], USA) comes in a convenient 96-well format, with enough purified recombinant EGFR enzyme, EGFR substrate, ATP, and kinase assay buffer for 100 enzyme reactions. The master mixture (25 μL per well) was prepared out of Kinase assay buffer (6 μL), ATP (500 μM, 1 μL), PTK substrate (50×, 1 μL) and water (17 μL) and added to each well. Inhibitor solution was made by dissolving 4b in a liquid labelled” inhibitor buffer”. An inhibitor solution (5 μL) was then added to each well, labelled as “Test Inhibitor”. For “Positive Control” and “Blank”, add 5 μL inhibitor buffer). EGFR was thawed on ice. Its tube was spun briefly to recover the full content of the tube. The enzyme was diluted with 1× Kinase assay buffer enzyme to 1 ng/μL. The reaction was initiated by adding 20 μL of diluted EGFR enzyme to the wells designated “Positive Control” and “Test Inhibitor Control”. The plate was incubated at 30 °C for 40 min. After the 40-min reaction, the Kinase-Glo Max (50 μL) reagent was added to each well. The plate was covered with aluminum foil, incubated at room temperature for 15 min and the luminescence was measured using the microplate reader.
# CK1 [3] = assay: Casein Kinase 1 (CK1) 33P-ATP assay; assay type: biochemical
# Experimental: The active CK1, kinase assay buffer, substrate solution and kinase dilution buffer were thawed on ice (^33P-ATP assay Cocktail). In a precooled microcentrifuge tube, 10 μL of kinase solution, 5 μL of substrate solution and 5 μL of cold water (4 °C) were added, then a blank control was set up. Each reaction was initiated by adding 5 μL of ^33P-ATP assay cocktail then incubated for 15 min in a water bath (30 °C), then 20 μL of the reaction mixture were spotted onto an individually precut strip of phosphocellulose P81 paper and allowed to air dry followed by washing using 1% H2SO4 with constant gentle stirring. A radioactive control was set up then 5 μL of γ-^33P-ATP assay cocktail was spotted on P81 paper, the sample was allowed to air dry for 2 min then the radioactivity count was recorded.
# CK1 [4] = details: cited from earlier work
compound,measurement,setting,value
"COc1cc(OC)c(/C=C2/C(=O)Nc3ccc(Cl)cc32)c(OC)c1 [Compound 4c, (E)-5-chloro-3-(2,4,6-trimethoxybenzylidene)indolin-2-one]",inhibition at 1 µM,MCF-7,17.9%
same,inhibition at 10 µM,MCF-7,65.1%
same,inhibition at 1 µM,PC-3; 1 μM,28.9%
same,inhibition at 10 µM,PC-3,62.2%
same,Growth Inhibition (%) COLO-205 10 μM Average,COLO-205 [1],58.44%
same,inhibition at 1 µM,COLO-205 [1],2.67%
same,inhibition at 10 µM,COLO-205 [1],58%
same,melting point,,244 to 247 °C
"COc1cc(OC)c(/C=C2/C(=O)Nc3ccc(F)cc32)c(OC)c1 [Compound 4d, (E)-5-fluoro-3-(2,4,6-trimethoxybenzylidene)indolin-2-one]",inhibition at 1 µM,MCF-7,10%
same,inhibition at 10 µM,MCF-7,66.1%
same,inhibition at 1 µM,PC-3; 1 μM,23.8%
same,inhibition at 10 µM,PC-3,58%
same,Growth Inhibition (%) COLO-205 10 μM Average,COLO-205 [1],64.01%
same,inhibition at 1 µM,COLO-205 [1],9.69%
same,inhibition at 10 µM,COLO-205 [1],64%
same,IC50,COLO-205 [2],1 µM
same,melting point,,212 to 215 °C
"COc1cc(OC)c(/C=C2/C(=O)Nc3ccc(OC)cc32)c(OC)c1 [Compound 4e, (E)-5-methoxy-3-(2,4,6-trimethoxybenzylidene)indolin-2-one]",inhibition at 1 µM,MCF-7,34.5%
same,inhibition at 10 µM,MCF-7,68.9%
same,Growth Inhibition (%) PC-3 1 μM Average,"PC-3; 1 μM, 72 h",42.36%
same,inhibition at 1 µM,PC-3; 1 μM,43%
same,inhibition at 10 µM,PC-3,63.3%
same,inhibition at 1 µM,COLO-205 [1],8.05%
same,inhibition at 10 µM,COLO-205 [1],31.9%
same,IC50,COLO-205 [2],0.3 µM
same,IC50,EGFR,1170 nM
same,Casein Kinase I Inhibition IC50,CK1 [3],13.08 µg/mL
same,fold less potent on CK1 than compound 4b,CK1 [3]; ratio of CK1 IC50 vs 4b,about 6.8 fold
same,melting point,,221 to 223 °C
"COc1cc(/C=C2/C(=O)N(Cc3ccc(Cl)cc3)c3cc(Cl)ccc32)cc(OC)c1OC [Compound 6e, (E)-6-chloro-1-(4-chlorobenzyl)-3-(3,4,5-trimethoxybenzylidene) indolin-2-one]",inhibition at 1 µM,MCF-7,3.69%
same,inhibition at 10 µM,MCF-7,6%
same,inhibition at 1 µM,PC-3; 1 μM,3.22%
same,inhibition at 10 µM,PC-3,5.65%
same,inhibition at 1 µM,COLO-205 [1],6.49%
same,inhibition at 10 µM,COLO-205 [1],72.6%
same,IC50,COLO-205 [2],15.3 µM
"COc1cc(/C=C2/C(=O)N(Cc3ccc(F)cc3)c3cc(Cl)ccc32)cc(OC)c1OC [Compound 6f, (E)-6-chloro-1-(4-fluorobenzyl)-3-(3,4,5-trimethoxybenzylidene) indolin-2-one]",inhibition at 1 µM,MCF-7,3.56%
same,inhibition at 10 µM,MCF-7,29.9%
same,inhibition at 1 µM,PC-3; 1 μM,0.4%
same,inhibition at 10 µM,PC-3,23.4%
same,inhibition at 1 µM,COLO-205 [1],3.67%
same,inhibition at 10 µM,COLO-205 [1],63.8%
same,IC50,COLO-205 [2],10.6 µM
"COc1cc(/C=C2/C(=O)N(CC(=O)OC(C)(C)C)c3cc(Cl)ccc32)cc(OC)c1OC [Compound 9a, t-Butyl (E)-2-(6-chloro-2-oxo-3-(3,4,5-trimethoxybenzylidene)indolin-1-yl)acetate]",inhibition at 1 µM,MCF-7,2.11%
same,inhibition at 10 µM,MCF-7,7.11%
same,inhibition at 1 µM,PC-3; 1 μM,1.19%
same,inhibition at 10 µM,PC-3,5.56%
same,inhibition at 1 µM,COLO-205 [1],3.05%
same,inhibition at 10 µM,COLO-205 [1],13%
same,melting point,,82 to 85 °C
"CCOC(=O)CN1C(=O)/C(=C/c2cc(OC)c(OC)c(OC)c2)c2ccc(Cl)cc21 [Compound 9b, Ethyl (E)-2-(6-chloro-2-oxo-3-(3,4,5-trimethoxybenzylidene)indolin-1-yl)acetate]",inhibition at 1 µM,MCF-7,2.3%
same,inhibition at 10 µM,MCF-7,6.82%
same,inhibition at 1 µM,PC-3; 1 μM,1.66%
same,inhibition at 10 µM,PC-3,13.2%
same,inhibition at 1 µM,COLO-205 [1],35.1%
same,inhibition at 10 µM,COLO-205 [1],40.9%
same,melting point,,60 to 62 °C
Nc1ccc2c(c1)/C(=C1/Nc3ccccc3/C1=N\O)C(=O)N2 [X],inhibitory activity against CK1,CK1 [4],0.13 µM
